Experimental data published in PubChem BioAssay AID1845197 (Molecular Pharmacology Branch, DTP, NCI, 2023).

Tested on: 349418-098-R tumor spheroid viability
Test: Anticancer human tumor 349418-098-R patient-derived lung adenocarcinoma cell line growth inhibition
Conditions: spheroids with HUVEC and MSC; for IC50: curve of first compound; for viability, T/C: stronger effect = lower value; active = viability on the fitted dose curve at most 10% of control; inactive = the rest
In short: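 Single agents and combinations were tested on spheroids built from tumor cells plus HUVEC and hMSC, at half-log dilutions starting at or near clinical Cmax, else 10 microM; final DMSO 0.25% (v/v).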

[1] = second compound 30 pM, first compound 0.0949 µM
[2] = second compound 30 pM, first compound 0.3 µM
[3] = second compound 30 pM, first compound 0.949 µM
[4] = second compound 30 pM, first compound 3 µM
[5] = second compound 94.9 pM, first compound 0.0949 µM
[6] = second compound 94.9 pM, first compound 0.3 µM
[7] = second compound 94.9 pM, first compound 0.949 µM
[8] = second compound 94.9 pM, first compound 3 µM
[9] = second compound 0.0003 µM, first compound 0.0949 µM
[10] = second compound 0.0003 µM, first compound 0.3 µM
[11] = second compound 0.0003 µM, first compound 0.949 µM
[12] = second compound 0.0003 µM, first compound 3 µM
[13] = second compound 0.000949 µM, first compound 0.0949 µM
[14] = second compound 0.000949 µM, first compound 0.3 µM
[15] = second compound 0.000949 µM, first compound 0.949 µM
[16] = second compound 0.000949 µM, first compound 3 µM
[17] = second compound 0.003 µM, first compound 0.0949 µM
[18] = second compound 0.003 µM, first compound 0.3 µM
[19] = second compound 0.003 µM, first compound 0.949 µM
[20] = second compound 0.003 µM, first compound 3 µM
[21] = second compound 30 pM, first compound 0.0316 µM
[22] = second compound 30 pM, first compound 0.1 µM
[23] = second compound 30 pM, first compound 0.316 µM
[24] = second compound 30 pM, first compound 1 µM
[25] = second compound 30 pM, first compound 3.16 µM
[26] = second compound 30 pM, first compound 10 µM
[27] = second compound 94.9 pM, first compound 0.0316 µM
[28] = second compound 94.9 pM, first compound 0.1 µM
[29] = second compound 94.9 pM, first compound 0.316 µM
[30] = second compound 94.9 pM, first compound 1 µM
[31] = second compound 94.9 pM, first compound 3.16 µM
[32] = second compound 94.9 pM, first compound 10 µM
[33] = second compound 0.0003 µM, first compound 0.0316 µM
[34] = second compound 0.0003 µM, first compound 0.1 µM
[35] = second compound 0.0003 µM, first compound 0.316 µM
[36] = second compound 0.0003 µM, first compound 1 µM
[37] = second compound 0.0003 µM, first compound 3.16 µM
[38] = second compound 0.0003 µM, first compound 10 µM
[39] = second compound 0.000949 µM, first compound 0.0316 µM
[40] = second compound 0.000949 µM, first compound 0.1 µM
[41] = second compound 0.000949 µM, first compound 0.316 µM
[42] = second compound 0.000949 µM, first compound 1 µM
[43] = second compound 0.000949 µM, first compound 3.16 µM
[44] = second compound 0.000949 µM, first compound 10 µM
[45] = second compound 0.003 µM, first compound 0.0316 µM
[46] = second compound 0.003 µM, first compound 0.1 µM
[47] = second compound 0.003 µM, first compound 0.316 µM
[48] = second compound 0.003 µM, first compound 1 µM
[49] = second compound 0.003 µM, first compound 3.16 µM
[50] = second compound 0.003 µM, first compound 10 µM
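Note: spheroids exposed to compound for 7 days before measurement.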
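Throughout, for viability, T/C: percent of vehicle control viability with 100% = DMSO-treated spheroids.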

Cn1ncnc1[C@H]1c2n[nH]c(=O)c3cc(F)cc(c23)N[C@@H]1c1ccc(F)cc1 + COc1cc2c(cc1O)CCNC21CSC2c3c(OC(C)=O)c(C)c4c(c3C(COC1=O)N1C(O)C3Cc5cc(C)c(OC)c(O)c5C(C21)N3C)OCO4
inactive: viability, T/C (second compound 30 pM, first compound 0.00949 µM) 87.2% | viability, T/C (second compound 30 pM, first compound 0.03 µM) 97.2% | viability, T/C [1] 88.8% | viability, T/C [2] 93.5% | viability, T/C [3] 86.8% | viability, T/C (second compound 94.9 pM, first compound 0.00949 µM) 93.2% | viability, T/C (second compound 94.9 pM, first compound 0.03 µM) 89.6% | viability, T/C [5] 85.6% | viability, T/C [6] 94.8% | viability, T/C [7] 50.3% | viability, T/C (second compound 0.0003 µM, first compound 0.00949 µM) 66.4% | viability, T/C (second compound 0.0003 µM, first compound 0.03 µM) 68.5% | viability, T/C [9] 47.8% | viability, T/C [10] 34.9% | viability, T/C [11] 11.5%
< 9.49 nM: IC50 (second compound 0.000949 µM) | IC50 (second compound 0.003 µM)
active: viability, T/C [4] 9.75% | viability, T/C [8] 4.92% | viability, T/C [12] 2.39% | viability, T/C (second compound 0.000949 µM, first compound 0.00949 µM) 0.87% | viability, T/C (second compound 0.000949 µM, first compound 0.03 µM) 0.43% | viability, T/C [13] 0.53% | viability, T/C [14] 0.21% | viability, T/C [15] 0.13% | viability, T/C [16] 0.19% | viability, T/C (second compound 0.003 µM, first compound 0.00949 µM) 1.57% | viability, T/C (second compound 0.003 µM, first compound 0.03 µM) 1.54% | viability, T/C [17] 1.41% | viability, T/C [18] 1.35% | viability, T/C [19] 2.21% | viability, T/C [20] 3.32%
107 nM: IC50 (second compound 0.0003 µM)
956 nM: IC50 (second compound 94.9 pM)
1640 nM: IC50 (second compound 30 pM)

CC1COCCN1c1cc(-c2ccnn2C)c2ccnc(-c3ccn[nH]3)c2n1 (stereo not given) + COc1cc2c(cc1O)CCNC21CSC2c3c(OC(C)=O)c(C)c4c(c3C(COC1=O)N1C(O)C3Cc5cc(C)c(OC)c(O)c5C(C21)N3C)OCO4
63.1 nM: IC50 (second compound 30 pM)
inactive: viability, T/C [21] 88.5% | viability, T/C [22] 24.3% | viability, T/C [23] 13.4% | viability, T/C [24] 12.1% | viability, T/C [25] 12.2% | viability, T/C [26] 11.8% | viability, T/C [27] 54.9% | viability, T/C [28] 16.2% | viability, T/C [29] 9.93% | viability, T/C [30] 10.6% | viability, T/C [31] 12.4% | viability, T/C [32] 10.6% | viability, T/C [33] 12%
36.5 nM: IC50 (second compound 94.9 pM)
active: viability, T/C [34] 4.5% | viability, T/C [35] 5.77% | viability, T/C [36] 6.89% | viability, T/C [37] 7.2% | viability, T/C [38] 7.37% | viability, T/C [39] 0.38% | viability, T/C [40] 0.68% | viability, T/C [41] 0.46% | viability, T/C [42] 0.39% | viability, T/C [43] 0.25% | viability, T/C [44] 0.23% | viability, T/C [45] 1.52% | viability, T/C [46] 1.22% | viability, T/C [47] 1.66% | viability, T/C [48] 1.39% | viability, T/C [49] 1.43% | viability, T/C [50] 1.5%
< 31.6 nM: IC50 (second compound 0.0003 µM) | IC50 (second compound 0.000949 µM) | IC50 (second compound 0.003 µM)

O=C(c1cc(Cc2n[nH]c(=O)c3ccccc23)ccc1F)N1CCN(C(=O)C2CC2)CC1 + COc1cc2c(cc1O)CCNC21CSC2c3c(OC(C)=O)c(C)c4c(c3C(COC1=O)N1C(O)C3Cc5cc(C)c(OC)c(O)c5C(C21)N3C)OCO4
inactive: viability, T/C [1] 122% | viability, T/C [2] 107% | viability, T/C [3] 108% | viability, T/C [4] 111% | viability, T/C (second compound 30 pM, first compound 9.49 µM) 107% | viability, T/C (second compound 30 pM, first compound 30 µM) 69.6% | viability, T/C [5] 104% | viability, T/C [6] 108% | viability, T/C [7] 102% | viability, T/C [8] 107% | viability, T/C (second compound 94.9 pM, first compound 9.49 µM) 98.7% | viability, T/C (second compound 94.9 pM, first compound 30 µM) 54.6% | viability, T/C [9] 94.9% | viability, T/C [10] 87.4% | viability, T/C [11] 79.7% | viability, T/C [12] 58.9% | viability, T/C (second compound 0.0003 µM, first compound 9.49 µM) 19.3%
> 30000 nM: IC50 (second compound 30 pM) | IC50 (second compound 94.9 pM)
< 94.9 nM: IC50 (second compound 0.000949 µM) | IC50 (second compound 0.003 µM)
3700 nM: IC50 (second compound 0.0003 µM)
active: viability, T/C (second compound 0.0003 µM, first compound 30 µM) 5.2% | viability, T/C [13] 0.44% | viability, T/C [14] 0.4% | viability, T/C [15] 0.25% | viability, T/C [16] 0.25% | viability, T/C (second compound 0.000949 µM, first compound 9.49 µM) 0.15% | viability, T/C (second compound 0.000949 µM, first compound 30 µM) 0.44% | viability, T/C [17] 1.64% | viability, T/C [18] 1.88% | viability, T/C [19] 1.67% | viability, T/C [20] 2.88% | viability, T/C (second compound 0.003 µM, first compound 9.49 µM) 3.79% | viability, T/C (second compound 0.003 µM, first compound 30 µM) 5.74%

CC(C)n1c(=O)n(C)c2cnc3cc(F)c(-c4ccc(OCCCN5CCCCC5)nc4)cc3c21 + COc1cc2c(cc1O)CCNC21CSC2c3c(OC(C)=O)c(C)c4c(c3C(COC1=O)N1C(O)C3Cc5cc(C)c(OC)c(O)c5C(C21)N3C)OCO4
> 10000 nM: IC50 (second compound 30 pM) | IC50 (second compound 94.9 pM)
inactive: viability, T/C [21] 91.8% | viability, T/C [22] 97.4% | viability, T/C [23] 106% | viability, T/C [24] 99.6% | viability, T/C [25] 98.4% | viability, T/C [26] 77.7% | viability, T/C [27] 91.5% | viability, T/C [28] 85% | viability, T/C [29] 93% | viability, T/C [30] 92.7% | viability, T/C [31] 94.6% | viability, T/C [32] 60.2% | viability, T/C [33] 40.2% | viability, T/C [34] 37% | viability, T/C [35] 31.7% | viability, T/C [36] 32.1% | viability, T/C [37] 45.2% | viability, T/C [38] 22.1%
< 31.6 nM: IC50 (second compound 0.0003 µM) | IC50 (second compound 0.000949 µM) | IC50 (second compound 0.003 µM)
active: viability, T/C [39] 0.4% | viability, T/C [40] 0.3% | viability, T/C [41] 0.49% | viability, T/C [42] 1.21% | viability, T/C [43] 1.2% | viability, T/C [44] 0.62% | viability, T/C [45] 1.38% | viability, T/C [46] 1.4% | viability, T/C [47] 1.38% | viability, T/C [48] 1.37% | viability, T/C [49] 1.41% | viability, T/C [50] 1.51%
